26 compounds from ChEMBL document CHEMBL3045035, “Synthesis and insect antifeedant activity of stilbene derivatives against Brontispa longissima Larvae” (2013) can be followed below.

Test [1] has as its system Brontispa longissima. As to the kind of experiment: Antifeedant activity against third-instar larval stage of Brontispa longissima in […] assessed as decrease in leaf surface consumption treated for 30 secs prior to larval infestation measured after 48 hr by leaf-dipping method. It counts as functional.
Test [2] deals with Brontispa longissima. As to the kind of experiment: Ratio of compound AFC50 to combrestatin A-4 AFC50 for third-instar larval stage of Brontispa longissima. It counts as functional.

Consider `COc1ccc(/C=C(/C#N)c2cc(OC)c(OC)c(OC)c2)cc1O`, for which, in the test with Brontispa longissima [1], the AFC50 came to 0.431 mg/mL and the pAFC50 is recorded as 0.36.

Take `COc1ccc(/C=C(/C(=O)O)c2cc(OC)c(OC)c(OC)c2)cc1O`: the Ratio with Brontispa longissima [2] was 7. Also, in the test on Brontispa longissima [1], the AFC50 was 1.461 mg/mL and the pAFC50 was -0.17.

For the compound `COC(=O)/C(=C/c1ccc(OC)c(O)c1)c1cc(OC)c(OC)c(OC)c1`, the Ratio in the test with Brontispa longissima [2] stood at 7. In addition, in the test on Brontispa longissima [1], the AFC50 is 1.453 mg/mL and the pAFC50 was -0.16.

As to `O=[N+]([O-])c1ccc(/C=C\c2ccc(O)cc2)cc1`, in the test with Brontispa longissima [1], the AFC50 is 1.185 mg/mL and the pAFC50 was -0.07.

Take `COc1ccc(/C=C\c2ccc(O)cc2)cc1[N+](=O)[O-]`: in the test with Brontispa longissima [1], the AFC50 amounted to 1.301 mg/mL and the pAFC50 was -0.11.

As for `COc1ccc(/C=C\c2ccc(OC(C)=O)cc2)cc1OC(C)=O`, in the test with Brontispa longissima [1], the AFC50 amounted to 2.501 mg/mL and the pAFC50 was -0.4.

On to `CC(=O)Oc1ccc(/C=C\c2ccc(OC(C)=O)c(OC(C)=O)c2)cc1`, for which, in the test with Brontispa longissima [1], the AFC50 stood at 0.64 mg/mL and the pAFC50 was 0.19.

In the case of `Oc1ccc(/C=C\c2ccc3c(c2)OCO3)cc1`, in the test with Brontispa longissima [1], the AFC50 amounted to 1.005 mg/mL and the pAFC50 is on record as 0.

In the case of `COc1ccc(/C=C(/CO)c2cc(OC)c(OC)c(OC)c2)cc1O`, in the test on Brontispa longissima [1], the AFC50 was 0.226 mg/mL and the pAFC50 is recorded as 0.65.

In the case of `COc1ccc(/C=C(/C(N)=O)c2cc(OC)c(OC)c(OC)c2)cc1O`, in the test with Brontispa longissima [1], the AFC50 is 0.736 mg/mL and the pAFC50 is given as 0.13.

`COc1cc(/C=C\c2ccc([N+](=O)[O-])cc2[N+](=O)[O-])cc(OC)c1OC`: the Ratio with Brontispa longissima [2] was 5. Moreover, in the test with Brontispa longissima [1], the AFC50 amounted to 1.05 mg/mL and the pAFC50 was -0.02.

With `COc1cc(/C=C\c2cc(Cl)cc(Cl)c2)cc(OC)c1OC`, the Ratio in the test on Brontispa longissima [2] is 5. In the test on Brontispa longissima [1], the AFC50 amounted to 2.234 mg/mL and the pAFC50 is recorded as -0.35.

For `COc1cc(/C=C\c2ccc(OC(C)=O)c(OC(C)=O)c2)cc(OC)c1OC`, in the test with Brontispa longissima [1], the AFC50 was determined as 1.918 mg/mL and the pAFC50 is listed as -0.28.

For the compound `COc1cc(/C=C\c2ccc3c(c2)OCO3)cc(OC)c1OC`, in the test with Brontispa longissima [1], the AFC50 was 0.731 mg/mL and the pAFC50 is recorded as 0.14.

Turning to `Oc1ccc(/C=C\c2ccccc2)cc1`, in the test on Brontispa longissima [1], the AFC50 was 1.161 mg/mL and the pAFC50 was -0.06.

`COc1ccc(/C=C\c2ccc(OC(C)=O)cc2)cc1`: in the test on Brontispa longissima [1], the AFC50 came out at 0.732 mg/mL and the pAFC50 is recorded as 0.14.

With `Oc1ccc(/C=C\c2ccc(Cl)cc2)cc1`, in the test on Brontispa longissima [1], the AFC50 is 0.412 mg/mL and the pAFC50 worked out at 0.39.

On to `COc1cc(/C=C\c2ccc(Cl)cc2)cc(OC)c1OC`, for which, in the test with Brontispa longissima [1], the AFC50 amounted to 1.634 mg/mL and the pAFC50 was -0.21.

With `COc1ccc(/C=C\c2cc(OC)c(OC)c(OC)c2)cc1`, in the test with Brontispa longissima [1], the AFC50 came to 0.327 mg/mL and the pAFC50 is recorded as 0.48.

With `COc1cc(/C=C\c2ccc([N+](=O)[O-])cc2)cc(OC)c1OC`, the Ratio in the test on Brontispa longissima [2] is 3. In addition, in the test on Brontispa longissima [1], the AFC50 was determined as 0.982 mg/mL and the pAFC50 is 0.01.

For `COc1cc(/C=C\c2ccccc2)cc(OC)c1OC`, in the test on Brontispa longissima [1], the AFC50 amounted to 0.529 mg/mL and the pAFC50 was determined as 0.28.

Consider `COc1cc(/C=C\c2ccc(OC(C)=O)cc2)cc(OC)c1OC`, for which the Ratio in the test with Brontispa longissima [2] was 3. Moreover, in the test with Brontispa longissima [1], the AFC50 was 0.843 mg/mL and the pAFC50 was 0.07.

On to `COc1cc(/C=C\c2ccc(O)cc2)cc(OC)c1OC`, for which, in the test with Brontispa longissima [1], the AFC50 came to 1.261 mg/mL and the pAFC50 was -0.1.

On to `COc1ccc(/C=C\c2cc(OC)c(OC)c(OC)c2)cc1O` [COMBRETASTATIN A4], for which, in the test with Brontispa longissima [1], the AFC50 came out at 0.218 mg/mL and the pAFC50 is listed as 0.66.

In the case of `COc1ccc(/C=C/c2cc(OC)c(OC)c(OC)c2)cc1O` [E-COMBRETASTATIN A-4], in the test on Brontispa longissima [1], the AFC50 is 0.357 mg/mL and the pAFC50 is reported as 0.45.

Turning to `Oc1ccc(/C=C/c2cc(O)cc(O)c2)cc1` [RESVERATROL], in the test on Brontispa longissima [1], the AFC50 is 0.816 mg/mL.
